Assay: in vitro
Details: human, hek293t cells
Work on `C=CC(=O)N(C)CC(=O)N1CCC[C@H](NC(=O)C(F)(F)F)[C@@H]1C` (racemic) [2-A20, rac-N-methyl-N-{2-[(2R,3R)-2-methyl-3-(2,2,2-trifluoroacetamido)piperidin-1-yl]-2-oxoethyl}prop-2-enamide] yielded a viability at 48 h, 25 µM of 96%. Molecule `Cc1ccc(C=C(C#N)C(=O)NCCc2ccccc2)o1` [8-H12, 2-cyano-3-(5-methylfuran-2-yl)-N-(2-phenylethyl)prop-2-enamide] has a viability at 48 h, 25 µM of 118%. `N#CC(=Cc1ccc(OC(F)F)cc1)C(=O)Nc1nccs1` [8-F14, 2-cyano-3-[4-(difluoromethoxy)phenyl]-N-(1,3-thiazol-2-yl)prop-2-enamide] showed a viability at 48 h, 25 µM of 113%. Work on `COc1ccc(C=C(C#N)C(=O)Nc2ccc(Cl)cc2Cl)cc1` [8-K03, 2-cyano-N-(2,4-dichlorophenyl)-3-(4-methoxyphenyl)prop-2-enamide] yielded a viability at 48 h, 25 µM of 104%. `O=C(CCl)Cc1ccc(F)cc1Cl` [10-E19, 1-chloro-3-(2-chloro-4-fluorophenyl)propan-2-one] gave a viability at 48 h, 25 µM of 1.31%. With `COc1cccc([C@H]2C[C@H](N(C)C(=O)C(C)Cl)C2)c1` (stereo partly shown) [6-B17, 2-chloro-N-methyl-N-[(1r,3r)-3-(3-methoxyphenyl)cyclobutyl]propanamide] the viability at 48 h, 25 µM was 79.7%. Work on `COC(=O)c1c(C(=O)CCl)c(C)n(C(C)C)c1C` [10-K21, methyl 4-(2-chloroacetyl)-2,5-dimethyl-1-(propan-2-yl)-1H-pyrrole-3-carboxylate] yielded a viability at 48 h, 25 µM of 71.2%. With `C=CC(=O)Nc1cnn(CCF)c1` [1-E05, N-[1-(2-fluoroethyl)-1H-pyrazol-4-yl]prop-2-enamide] the viability at 48 h, 25 µM was 78.3%. In the case of `O=C(CN(CC1CCCO1)C(=O)CCl)N1CCCC1` (stereo not shown) [7-D18, 2-chloro-N-[2-oxo-2-(pyrrolidin-1-yl)ethyl]-N-[(oxolan-2-yl)methyl]acetamide], the viability at 48 h, 25 µM is reported as 99.8%. For `O=C(CCl)Nc1cc(C(F)(F)F)ccc1Cl` [4-J04, 2-chloro-N-[2-chloro-5-(trifluoromethyl)phenyl]acetamide], the viability at 48 h, 25 µM was 1.3%. For `C=CC(=O)N(C)CC(=O)N1CCCCC1c1nc(C)no1` (stereo not shown) [3-K17, N-methyl-N-{2-[2-(3-methyl-1,2,4-oxadiazol-5-yl)piperidin-1-yl]-2-oxoethyl}prop-2-enamide], the viability at 48 h, 25 µM was 47.9%. In the case of `O=C(CCl)Nc1nc(-c2cccs2)cs1` [5-D18, 2-chloro-N-[4-(thiophen-2-yl)-1,3-thiazol-2-yl]acetamide], the viability at 48 h, 25 µM is reported as 0.312%. Work on `N#CC(=Cc1ccccc1)C(=O)Nc1ccccc1-c1ccccc1` [8-A15, N-{[1,1'-biphenyl]-2-yl}-2-cyano-3-phenylprop-2-enamide] yielded a viability at 48 h, 25 µM of 90.1%. Work on `C=CC(=O)NCc1ncnn1-c1ccccc1` [3-H11, N-[(1-phenyl-1H-1,2,4-triazol-5-yl)methyl]prop-2-enamide] yielded a viability at 48 h, 25 µM of 63.1%. In the case of `Cc1ccc(C)c(Sc2ccc(NC(=O)CCl)cc2)c1` [4-H09, 2-chloro-N-{4-[(2,5-dimethylphenyl)sulfanyl]phenyl}acetamide], the viability at 48 h, 25 µM is reported as -0.157%. In the case of `O=C(CCl)N1CC2CCC(C1)O2` [6-M20, 2-chloro-1-{8-oxa-3-azabicyclo[3.2.1]octan-3-yl}ethan-1-one], the viability at 48 h, 25 µM is reported as 1.12%. With `COc1cc(C=C(C#N)C(=O)NCc2ccccc2)cc2c1OCCO2` [9-I10, N-benzyl-2-cyano-3-(8-methoxy-2,3-dihydro-1,4-benzodioxin-6-yl)prop-2-enamide] the viability at 48 h, 25 µM was 118%. `C=CC(=O)N(Cc1cn(C)nc1CC)C1CCCCCC1` [1-H09, N-cycloheptyl-N-[(3-ethyl-1-methyl-1H-pyrazol-4-yl)methyl]prop-2-enamide] gave a viability at 48 h, 25 µM of 84.9%. Work on `C=CC(=O)N(Cc1ccccc1)C1CCOc2ccc(OC)cc21` (stereo not shown) [1-O17, N-benzyl-N-(6-methoxy-3,4-dihydro-2H-1-benzopyran-4-yl)prop-2-enamide] yielded a viability at 48 h, 25 µM of 71.6%. Molecule `O=CN1CCc2cc(C(=O)CCl)ccc21` [10-K20, 5-(2-chloroacetyl)-2,3-dihydro-1H-indole-1-carbaldehyde] has a viability at 48 h, 25 µM of 89.7%. In the case of `CC(C)NC(=O)C(C#N)=Cc1ccccc1Cl` [9-A09, 3-(2-chlorophenyl)-2-cyano-N-(propan-2-yl)prop-2-enamide], the viability at 48 h, 25 µM is reported as 95.9%. With `C=CC(=O)NCc1cc2cc(C)ccc2o1` [3-L14, N-[(5-methyl-1-benzofuran-2-yl)methyl]prop-2-enamide] the viability at 48 h, 25 µM was 85.4%. Molecule `COc1cc(C=C(C#N)C(=O)Nc2ccc(F)cc2)cc(Cl)c1O` [8-H07, 3-(3-chloro-4-hydroxy-5-methoxyphenyl)-2-cyano-N-(4-fluorophenyl)prop-2-enamide] has a viability at 48 h, 25 µM of 87.7%. `C=CC(=O)N1CCC(C(=O)N[C@H]2CCO[C@@H]2c2cccnc2)CC1` (racemic) [2-G20, rac-1-(prop-2-enoyl)-N-[(2R,3S)-2-(pyridin-3-yl)oxolan-3-yl]piperidine-4-carboxamide] showed a viability at 48 h, 25 µM of 92.2%. `C=CC(=O)Nc1ccc(N2CCN(CC)CC2)cc1` [1-D12, N-[4-(4-ethylpiperazin-1-yl)phenyl]prop-2-enamide] gave a viability at 48 h, 25 µM of 77.2%. Molecule `C=CC(=O)N1CCCCC1c1nc2ccccc2o1` (stereo not shown) [3-O20, 1-[2-(1,3-benzoxazol-2-yl)piperidin-1-yl]prop-2-en-1-one] has a viability at 48 h, 25 µM of 82.3%. `Cn1cc(C=C(C#N)C(=O)Nc2ccccc2F)c(-c2ccncc2)n1` [9-L15, 2-cyano-N-(2-fluorophenyl)-3-[1-methyl-3-(pyridin-4-yl)-1H-pyrazol-4-yl]prop-2-enamide] gave a viability at 48 h, 25 µM of 130%. Work on `N#CC(=Cc1ccc(F)c(F)c1)C(=O)NC1CC1` [9-M06, 2-cyano-N-cyclopropyl-3-(3,4-difluorophenyl)prop-2-enamide] yielded a viability at 48 h, 25 µM of 109%. For `COc1ccc(C=C(C#N)C(=O)NCc2ccco2)cc1` [8-J12, 2-cyano-N-[(furan-2-yl)methyl]-3-(4-methoxyphenyl)prop-2-enamide], the viability at 48 h, 25 µM was 112%. `C=CC(=O)N(C)CC(=O)N1CCN(c2nsc3ccccc23)CC1` [2-N10, N-{2-[4-(1,2-benzothiazol-3-yl)piperazin-1-yl]-2-oxoethyl}-N-methylprop-2-enamide] gave a viability at 48 h, 25 µM of 1.45%. With `O=C(CCl)Nc1c(Cl)cccc1C(F)(F)F` [5-B04, 2-chloro-N-[2-chloro-6-(trifluoromethyl)phenyl]acetamide] the viability at 48 h, 25 µM was 1.62%. For `C=CC(=O)N1CCC(C(=O)N2CCCC(c3cnn(C)c3)C2)CC1` (stereo not shown) [2-N16, 1-{4-[3-(1-methyl-1H-pyrazol-4-yl)piperidine-1-carbonyl]piperidin-1-yl}prop-2-en-1-one], the viability at 48 h, 25 µM was 99.6%. In the case of `O=C(CCl)Nc1ccccc1S(=O)(=O)C(F)F` [4-B18, 2-chloro-N-(2-difluoromethanesulfonylphenyl)acetamide], the viability at 48 h, 25 µM is reported as 38.2%. Molecule `C=CC(=O)N[C@@H](CN(C)C)c1ccccc1` [2-M19, N-[(1R)-2-(dimethylamino)-1-phenylethyl]prop-2-enamide] has a viability at 48 h, 25 µM of 87.1%. In the case of `C=CC(=O)N(CC)CC(=O)N1CCC(c2nncn2C)CC1` [2-L10, N-ethyl-N-{2-[4-(4-methyl-4H-1,2,4-triazol-3-yl)piperidin-1-yl]-2-oxoethyl}prop-2-enamide], the viability at 48 h, 25 µM is reported as 72.6%. Molecule `COc1ccccc1C(NC(=O)C(C)Cl)c1ccco1` (stereo not shown) [5-H19, 2-chloro-N-[(furan-2-yl)(2-methoxyphenyl)methyl]propanamide] has a viability at 48 h, 25 µM of 120%. For `N#Cc1ccc(OC2CN(C(=O)CCl)C2)cc1` [5-K07, 4-{[1-(2-chloroacetyl)azetidin-3-yl]oxy}benzonitrile], the viability at 48 h, 25 µM was 0.233%. `C=CC(=O)NC1CCN(Cc2ccccc2)C1` (stereo not shown) [1-N15, N-(1-benzylpyrrolidin-3-yl)prop-2-enamide] showed a viability at 48 h, 25 µM of 103%. Work on `C=CC(=O)NCc1c(C)nc2ccccn12` [1-C08, N-({2-methylimidazo[1,2-a]pyridin-3-yl}methyl)prop-2-enamide] yielded a viability at 48 h, 25 µM of 82.8%. In the case of `CC(=O)Nc1ccc(C=C(C#N)C(=O)NC2CCCCC2)cc1` [8-N16, 2-cyano-N-cyclohexyl-3-(4-acetamidophenyl)prop-2-enamide], the viability at 48 h, 25 µM is reported as 95.6%. `CC(Cl)C(=O)NCCC1=CCCCCC1` (stereo not shown) [5-N19, 2-chloro-N-[2-(cyclohept-1-en-1-yl)ethyl]propanamide] showed a viability at 48 h, 25 µM of 120%. `C=CC(=O)N(CC)CC(=O)N1CCCC1c1cn(C)nc1C` (stereo not shown) [2-N12, N-{2-[2-(1,3-dimethyl-1H-pyrazol-4-yl)pyrrolidin-1-yl]-2-oxoethyl}-N-ethylprop-2-enamide] gave a viability at 48 h, 25 µM of 85.2%. `CN(CC(=O)Nc1cccc(Cl)c1)C(=O)CCl` [5-F18, 2-chloro-N-{[(3-chlorophenyl)carbamoyl]methyl}-N-methylacetamide] showed a viability at 48 h, 25 µM of 0.687%. For `C=CC(=O)NC(=O)NCc1ccccc1` [1-I04, 1-benzyl-3-(prop-2-enoyl)urea], the viability at 48 h, 25 µM was 0.515%. `CC(Cl)C(=O)NC1CCCN(c2cnn(C)c2)C1` (stereo not shown) [7-K19, 2-chloro-N-[1-(1-methyl-1H-pyrazol-4-yl)piperidin-3-yl]propanamide] showed a viability at 48 h, 25 µM of 75.7%. `CC(=Cc1ccccc1)C=C(C#N)C(=O)Nc1ccc2c(c1)OCCO2` [9-J07, 2-cyano-N-(2,3-dihydro-1,4-benzodioxin-6-yl)-4-methyl-5-phenylpenta-2,4-dienamide] gave a viability at 48 h, 25 µM of 79.5%. With `CC(Cl)C(=O)N(Cc1nnc(-c2ccccc2Cl)o1)C1CC1` (stereo not shown) [5-B17, 2-chloro-N-{[5-(2-chlorophenyl)-1,3,4-oxadiazol-2-yl]methyl}-N-cyclopropylpropanamide] the viability at 48 h, 25 µM was 134%. Work on `C=CC(=O)NCc1csc(C(C)(C)C)n1` [2-C09, N-[(2-tert-butyl-1,3-thiazol-4-yl)methyl]prop-2-enamide] yielded a viability at 48 h, 25 µM of 86.1%. With `C=CC(=O)N1CCC(C(=O)N2CCOc3cc(F)ccc3C2)CC1` [3-E06, 1-[4-(8-fluoro-2,3,4,5-tetrahydro-1,4-benzoxazepine-4-carbonyl)piperidin-1-yl]prop-2-en-1-one] the viability at 48 h, 25 µM was 67.9%. Work on `CC(Cl)C(=O)N1CCC(c2nc(C3CC3)no2)(C(F)(F)F)C1` (stereo not shown) [7-K12, 2-chloro-1-[3-(3-cyclopropyl-1,2,4-oxadiazol-5-yl)-3-(trifluoromethyl)pyrrolidin-1-yl]propan-1-one] yielded a viability at 48 h, 25 µM of 83.5%. For `N#CC(=Cc1cccc2nccn12)C(=O)Nc1ccccc1` [9-M05, 2-cyano-3-{imidazo[1,2-a]pyridin-5-yl}-N-phenylprop-2-enamide], the viability at 48 h, 25 µM was 125%. `CCCC(=O)Nc1ccc(C(=O)C(C)Cl)cc1` (stereo not shown) [10-O06, N-[4-(2-chloropropanoyl)phenyl]butanamide] showed a viability at 48 h, 25 µM of 85.1%.

Reference: publication PMC11995724, “Antibiotic target discovery by integrated phenotypic and activity-based profiling of electrophilic fragments” (Cell chemical biology, 2025)
